Results taken from the NIST ThermoML archive (doi:10.1021/je201010s).

Columns and labels:
[1] = refractive index (Na D-line) (dimensionless); wn = mass fraction of the nth substance listed; settings: 101 kPa, Liquid, Standard Abbe refractometry
[2] = wn = mass fraction of the nth substance listed; settings: 101 kPa, Liquid, Vibrating tube method
[3] = refractive index (Na D-line) (dimensionless); settings: 101.33 kPa, Liquid, Standard Abbe refractometry
[4] = 101 kPa, Liquid, Vibrating tube method

O [water] + CC(C)O
Settings | refractive index
[1], 298.15 K, w2 = 0 | 1.3325

CCCCn1cc[n+](C)c1.F[B-](F)(F)F [1-butyl-3-methylimidazolium tetrafluoroborate] + O
298.15 K
Settings | mass density, [2] [kg/m3] | refractive index, [1]
w2 = 0 | 1202.87 | 1.422
w2 = 0.0098 | 1199.53 | 1.4206
w2 = 0.0167 | 1196.97 | 1.4194
w2 = 0.0205 | 1195.79 | 1.4191
w2 = 0.029 | 1193.14 | 1.418
w2 = 0.0396 | 1189.89 | 1.4169
w2 = 0.0585 | 1184.23 | 1.4141
w2 = 0.0982 | 1173.48 | 1.4094
w2 = 0.154 | 1159.29 | 1.4033
w2 = 0.2046 | 1147.24 | 1.398
w2 = 0.2517 | 1136.64 | 1.3934
w2 = 0.3043 | 1125.12 | 1.3883
w2 = 0.3966 | 1106.01 | 1.3801
w2 = 0.5061 | 1084.29 | 1.3705
w2 = 0.6986 | 1048.69 | 1.3549
w2 = 0.8897 | 1015.75 | 1.3406

CC(C)O [propan-2-ol]
Settings | mass density, [4] [kg/m3] | refractive index, [3]
298.15 K | 780.82 | 1.3751
323.15 K | 758.67 | 1.3604

CC(C)O [propan-2-ol] + O
298.15 K
Settings | mass density, [2] [kg/m3] | refractive index, [1]
w1 = 0.048 | – | 1.3365
w1 = 0.0915 | 982.05 | –
w1 = 0.0987 | – | 1.3412
w1 = 0.1446 | – | 1.3458
w1 = 0.2009 | – | 1.3502
w1 = 0.2131 | 960.29 | –
w1 = 0.241 | – | 1.3536
w1 = 0.2951 | – | 1.3569
w1 = 0.3299 | 936.93 | –
w1 = 0.3387 | – | 1.3597
w1 = 0.3921 | – | 1.3622
w1 = 0.4412 | – | 1.3645
w1 = 0.4795 | 906.69 | –
w1 = 0.4805 | – | 1.366
w1 = 0.5009 | 901.31 | –
w1 = 0.5386 | – | 1.3681
w1 = 0.618 | 874.45 | –
w1 = 0.6205 | – | 1.3707
w1 = 0.6337 | – | 1.3711
w1 = 0.6782 | – | 1.3722
w1 = 0.684 | 858.73 | –
w1 = 0.7452 | – | 1.3737
w1 = 0.7861 | – | 1.3744
w1 = 0.7874 | 834.01 | –
w1 = 0.8541 | – | 1.3752
w1 = 0.8788 | 811.99 | –
w1 = 0.8959 | – | 1.3756
w1 = 0.8976 | 807.44 | –
w1 = 0.9154 | 803.01 | –
w1 = 0.9311 | 799.05 | –
w1 = 0.9492 | – | 1.3756
w1 = 0.9502 | 794.22 | –
w1 = 0.9752 | 787.71 | –
w1 = 0.9895 | 783.8 | –
w1 = 1 | 780.82 | 1.3751

O [water] + CCCCn1cc[n+](C)c1.F[B-](F)(F)F
Settings | refractive index
[1], 298.15 K, w1 = 1 | 1.3325

CCCCn1cc[n+](C)c1.F[B-](F)(F)F [1-butyl-3-methylimidazolium tetrafluoroborate] + CC(C)O
323.15 K
Settings | mass density, [2] [kg/m3] | refractive index, [1]
w2 = 0 | 1185.11 | 1.4155
w2 = 0.0089 | 1180.38 | 1.4152
w2 = 0.0287 | 1170.07 | 1.4143
w2 = 0.0624 | 1147.36 | 1.4122
w2 = 0.1053 | 1122.14 | 1.4106
w2 = 0.1649 | 1091.32 | 1.4077
w2 = 0.2183 | 1061.8 | 1.4071
w2 = 0.2719 | 1031.58 | 1.406
w2 = 0.324 | 1012 | 1.403
w2 = 0.4108 | 973.34 | 1.3989
w2 = 0.5167 | 927.14 | 1.3948
w2 = 0.5965 | 901.85 | 1.391
w2 = 0.6194 | 888.84 | 1.3904
w2 = 0.7697 | 835.46 | 1.3817
w2 = 0.8372 | 809.26 | 1.3749
w2 = 0.9344 | 778.75 | 1.3668

CC(C)O [propan-2-ol] + CCCCn1cc[n+](C)c1.F[B-](F)(F)F
323.15 K, w1 = 1
Settings | mass density [kg/m3] | refractive index
[1] | – | 1.3604
[2] | 758.67 | –

CCCCn1cc[n+](C)c1.F[B-](F)(F)F [1-butyl-3-methylimidazolium tetrafluoroborate]
Settings | mass density, [4] [kg/m3] | refractive index, [3]
298.15 K | 1202.87 | 1.422
323.15 K | 1185.11 | 1.4155

O [water]
Settings | refractive index
[3], 298.15 K | 1.3325
